Data from paper PMC8319832, “Fine-Tuning of Alkaline Residues on the Hydrophilic Face Provides a Non-toxic Cationic α-Helical Antimicrobial Peptide Against Antibiotic-Resistant ESKAPE Pathogens” (Frontiers in Microbiology, 2021).

Columns and labels:
Assay in all cases: Drug sensitivity, Kirby-Bauer test
Set-up in all cases: key: 'S' represents susceptibility; 'I' represents intermediate efficacy; 'R' represents resistance
[1] = tested on: A. baumannii 906; assay type: cell-based, Acinetobacter baumannii; conditions: clinical isolate, CRE, MDR
Protocol: (§1) The bacteria used in this study included the standard strains S. aureus ATCC29213 and ATCC25923, E. faecalis ATCC29212, E. coli ATCC25922 and ATCC35218, A. baumannii ATCC19606, K. pneumoniae ATCC700603 and P. aeruginosa ATCC27853, these strains were purchased from the China Center of Type Culture Collection (CCTCC). The antimicrobial activities of the peptides were also determined against clinically isolated strains S. aureus 4188, 9124, 1176, S. epidermidis 9092, 6943, 888, E. faecalis 901, E. faecium 898, E. coli 2678, 2687, K. pneumoniae 9126, P. aeruginosa 9014, 9042, and A. baumannii 906, 13012, 13079, 9068, these strains were acquired from Taihe Hospital, Hubei University of Medicine. The drug sensitivities of the clinical isolates to the antibiotics were determined by the Kirby-Bauer test ([Chinnambedu et al., 2020]).

[2] = tested on: A. baumannii 9068; assay type: cell-based, Acinetobacter baumannii; conditions: clinical isolate, CRE, MDR
Protocol: as §1

[3] = tested on: A. baumannii 13012; assay type: cell-based, Acinetobacter baumannii; conditions: clinical isolate, CRE, MDR
Protocol: as §1

[4] = tested on: A. baumannii 13079; assay type: cell-based, Acinetobacter baumannii; conditions: clinical isolate, CRE, MDR
Protocol: as §1

[5] = tested on: P. aeruginosa 9014; assay type: cell-based, Pseudomonas aeruginosa; conditions: clinical isolate, CRE, MDR
Protocol: as §1

[6] = tested on: P. aeruginosa 9042; assay type: cell-based, Pseudomonas aeruginosa; conditions: clinical isolate
Protocol: as §1

[7] = tested on: K. pneumoniae 9126; assay type: cell-based, Klebsiella pneumoniae; conditions: clinical isolate, CRE
Protocol: as §1

[8] = tested on: E. coli 2678; assay type: cell-based, Escherichia coli; conditions: clinical isolate, ESBL
Protocol: as §1

[9] = tested on: E. coli 2687; assay type: cell-based, Escherichia coli; conditions: clinical isolate, ESBL
Protocol: as §1

[10] = tested on: S. aureus 1176; assay type: cell-based, Staphylococcus aureus; conditions: clinical isolate
Protocol: as §1

[11] = tested on: S. aureus 9124; assay type: cell-based, Staphylococcus aureus; conditions: clinical isolate, MRSA
Protocol: as §1

[12] = tested on: S. aureus 4188; assay type: cell-based, Staphylococcus aureus; conditions: clinical isolate
Protocol: as §1

[13] = tested on: S. epidermidis 888; assay type: cell-based; conditions: clinical isolate
Protocol: as §1

[14] = tested on: S. epidermidis 6943; assay type: cell-based; conditions: clinical isolate, MRSE
Protocol: as §1

[15] = tested on: S. epidermidis 9092; assay type: cell-based; conditions: clinical isolate, MRSE
Protocol: as §1

Compound	Drug sensitivity of the isolate to the antibiotic [1]	Drug sensitivity of the isolate to the antibiotic [2]	Drug sensitivity of the isolate to the antibiotic [3]	Drug sensitivity of the isolate to the antibiotic [4]	Drug sensitivity of the isolate to the antibiotic [5]	Drug sensitivity of the isolate to the antibiotic [6]	Drug sensitivity of the isolate to the antibiotic [7]	Drug sensitivity of the isolate to the antibiotic [8]	Drug sensitivity of the isolate to the antibiotic [9]	Drug sensitivity of the isolate to the antibiotic [10]	Drug sensitivity of the isolate to the antibiotic [11]	Drug sensitivity of the isolate to the antibiotic [12]	Drug sensitivity of the isolate to the antibiotic [13]	Drug sensitivity of the isolate to the antibiotic [14]	Drug sensitivity of the isolate to the antibiotic [15]
Piperacillin/tazobactam	R	R	R	R	R	S	S	S	S	–	–	–	–	–	–
CC(C)(O/N=C(\C(=O)N[C@@H]1C(=O)N2C(C(=O)[O-])=C(C[n+]3ccccc3)CS[C@H]12)c1csc(N)n1)C(=O)O [Ceftazidime]	R	R	R	R	R	S	R	S	R	–	–	–	–	–	–
C[C@@H](O)[C@H]1C(=O)N2C(C(=O)O)=C(SCCN=CN)C[C@H]12 [Imipenem]	R	R	R	R	R	R	R	S	S	–	–	–	–	–	–
Cc1onc(-c2ccccc2)c1C(=O)N[C@@H]1C(=O)N2[C@@H]1SC(C)(C)[C@@H]2C(=O)O [Oxazocilline]	–	–	–	–	–	–	–	–	–	S	R	S	S	R	R
C[C@@H](O)[C@H]1C(=O)N2C(C(=O)O)=C(S[C@@H]3CN[C@H](C(=O)N(C)C)C3)[C@H](C)[C@H]12 [Meropenem]	R	R	R	R	I	R	S	S	S	–	–	–	–	–	–
CC1(C)S[C@@H]2[C@H](NC(=O)[C@H](N)c3ccccc3)C(=O)N2[C@H]1C(=O)O [Ampicillin]	–	–	–	–	R	R	R	R	R	–	–	–	–	–	–
